Our source for the Activity values is ChEMBL document CHEMBL1250534, “Gentisides C-K: nine new neuritogenic compounds from the traditional Chinese medicine Gentiana rigescens Franch” (2010).

The source made the active and inactive calls. The rule behind the calls is not given here.

In experiment [1] the test system is PC-12. Nature of the experiment: Neuritogenic activity in rat PC12 cells assessed as induction of neurite outgrowth after 48 hrs. The experiment is classed as functional, cell-based.
The subject of experiment [2] is PC-12. Nature of the experiment: Neuritogenic activity in rat PC12 cells assessed as induction of neurite outgrowth at 1 to 30 uM after 48 hrs. Type of experiment: functional.
Experiment [3] concerns PC-12. Nature of the experiment: Cytotoxicity against rat PC12 cells at 1 uM. The experiment is classed as functional, cell-based.
For experiment [4], the system named is PC-12. Nature of the experiment: Neuritogenic activity in rat PC12 cells assessed as induction of bipolar neurite outgrowth at 1 uM after 48 hrs. Type of experiment: functional, cell-based.
The test system of experiment [5] is PC-12. Nature of the experiment: Neuritogenic activity in rat PC12 cells assessed as induction of neurite outgrowth at 0.03 uM after 48 hrs. The experiment is classed as functional, cell-based.
Experiment [6] deals with PC-12. Nature of the experiment: Neuritogenic activity in rat PC12 cells assessed as induction of multipolar neurite outgrowth at 1 uM after 48 hrs. Type of experiment: functional, cell-based.
The subject of experiment [7] is PC-12. Nature of the experiment: Neuritogenic activity in rat PC12 cells assessed as induction of neurite outgrowth at 1 uM after 48 hrs. The experiment is classed as functional.
For experiment [8], the system named is PC-12. Nature of the experiment: Neuritogenic activity in rat PC12 cells assessed as induction of neurite outgrowth at 30 uM after 48 hrs. Type of experiment: functional.

For `CC[C@H](C)CCCCCCCCCCCCCOC(=O)c1cccc(O)c1O` [GENTISIDE C], the values for the Activity result in the experiment on PC-12 [1], in the experiment on PC-12 [2] and with PC-12 [7] were “Dose-dependent effect”, 67% and 91%, respectively. In addition, the outcome in the experiment with PC-12 [3] was inactive. Moreover, the outcome in the experiment on PC-12 [4], in the experiment with PC-12 [5] and with PC-12 [6] was Active.
As to `CC(C)CCCCCCCCCCCCCCCOC(=O)c1cccc(O)c1O` [GENTISIDE D], the Activity in the experiment with PC-12 [2] stood at 67%.
On to `CCCCCCCCCCCCCCCCCCOC(=O)c1cccc(O)c1O` [GENTISIDE E], for which the Activity in the experiment on PC-12 [2] is given as 67%.
Same read-out and setting: next, `CC[C@H](C)CCCCCCCCCCCCCCCOC(=O)c1cccc(O)c1O` [GENTISIDE F]: 67%; `CC[C@H](C)CCCCCCCCCCCCCCCCOC(=O)c1cccc(O)c1O` [GENTISIDE G]: 67%.
In the case of `CC[C@H](C)CCCCCCCCCCCCCCCCCOC(=O)c1cccc(O)c1O` [GENTISIDE H], the Activity in the experiment with PC-12 [2] worked out at 67%.
Regarding `CCCCCCCCCCCCCCCCCCCCCOC(=O)c1cccc(O)c1O` [GENTISIDE I], in the experiment on PC-12 [2], the Activity is 67%.
Consider `CCCCCCCCCCCCCCCCCCCCCCOC(=O)c1cccc(O)c1O` [GENTISIDE J], for which the Activity with PC-12 [2] was 67%.
Take `CCCCCCCCCCCCCCCCCCCCCCCCOC(=O)c1cccc(O)c1O` [GENTISIDE K]: in the experiment on PC-12 [8], the Activity was 48%.
